Reference: patent US7238685B2, “Benzo-fused heterocycles as endothelin antagonists” (Actelion Pharmaceuticals Ltd., priority 2001, dated 2007)
Where two headings read alike, the source gives them in different places.

Legend:
[1] = biological target: T1, human recombinant ETB receptors (Homo sapiens, UniProt P24530); assay: Inhibition of endothelin binding to membranes from CHO cells carrying human ET receptors (ETB)
T1 construct: expressed in transfected cells; host or cells: CHO cells (microsomal membranes)
T1 sequence (P24530 27-442): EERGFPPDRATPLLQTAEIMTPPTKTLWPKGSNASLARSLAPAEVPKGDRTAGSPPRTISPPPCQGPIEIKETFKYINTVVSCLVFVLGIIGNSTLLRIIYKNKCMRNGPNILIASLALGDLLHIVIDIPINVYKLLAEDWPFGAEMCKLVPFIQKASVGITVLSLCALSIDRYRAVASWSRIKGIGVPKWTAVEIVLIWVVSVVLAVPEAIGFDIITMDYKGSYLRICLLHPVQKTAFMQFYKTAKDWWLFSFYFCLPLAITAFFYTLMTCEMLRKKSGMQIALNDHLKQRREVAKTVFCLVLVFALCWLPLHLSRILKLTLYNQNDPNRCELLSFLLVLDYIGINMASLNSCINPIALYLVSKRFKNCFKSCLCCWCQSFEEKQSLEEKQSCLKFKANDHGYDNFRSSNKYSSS

[2] = biological target: T2, human recombinant ETA receptors (Homo sapiens, UniProt P25101); assay: Inhibition of endothelin binding to membranes from CHO cells carrying human ET receptors (ETA)
T2 construct: expressed in transfected cells; host or cells: CHO cells (microsomal membranes)
T2 sequence (P25101 21-427): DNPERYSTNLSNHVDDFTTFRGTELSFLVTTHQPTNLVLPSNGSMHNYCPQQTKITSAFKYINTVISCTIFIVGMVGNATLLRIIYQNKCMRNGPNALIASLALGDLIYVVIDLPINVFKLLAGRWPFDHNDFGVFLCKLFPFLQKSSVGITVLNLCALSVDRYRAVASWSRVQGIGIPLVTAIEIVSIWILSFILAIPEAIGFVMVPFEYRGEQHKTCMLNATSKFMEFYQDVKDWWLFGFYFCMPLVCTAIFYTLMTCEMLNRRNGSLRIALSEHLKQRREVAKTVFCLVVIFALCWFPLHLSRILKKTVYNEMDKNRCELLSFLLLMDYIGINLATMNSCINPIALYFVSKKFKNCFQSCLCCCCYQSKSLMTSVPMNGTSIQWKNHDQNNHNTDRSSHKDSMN

[3] = biological target: T3, rat aortic rings (ETA receptors) (Rattus norvegicus, UniProt P26684); assay: Inhibition of endothelin-1-induced contractions on isolated rat aortic rings; conditions: read-out: pA2 (aortic rings) (converted)
T3 construct: from tissue; host or cells: thoracic aorta rings of adult Wistar rats, endothelium removed
T3 sequence (P26684 21-426): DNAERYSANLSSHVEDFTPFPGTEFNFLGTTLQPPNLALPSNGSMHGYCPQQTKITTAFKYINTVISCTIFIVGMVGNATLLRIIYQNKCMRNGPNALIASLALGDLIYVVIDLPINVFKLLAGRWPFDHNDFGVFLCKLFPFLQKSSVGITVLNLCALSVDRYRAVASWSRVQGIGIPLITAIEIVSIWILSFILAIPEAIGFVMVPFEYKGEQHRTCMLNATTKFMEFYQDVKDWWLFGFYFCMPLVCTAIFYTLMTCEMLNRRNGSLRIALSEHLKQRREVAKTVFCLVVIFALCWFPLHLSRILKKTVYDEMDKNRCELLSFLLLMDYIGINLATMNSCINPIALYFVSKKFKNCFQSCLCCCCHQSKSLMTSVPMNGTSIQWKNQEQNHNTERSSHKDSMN
Procedure: The functional inhibitory potency of the endothelin antagonists was assessed by their inhibition of the contraction induced by endothelin-1 on rat aortic rings (ETA receptors) and of the contraction induced by sarafotoxin S6c on rat tracheal rings (ETB receptors). Adult Wistar rats were anesthetized and exsanguinated. The thoracic aorta or trachea were excised, dissected and cut in 3–5 mm rings. The endothelium/epithelium was removed by gentle rubbing of the intimal surface. Each ring was suspended in a 10 ml isolated organ bath filled with Krebs-Henseleit solution (in mM; NaCl 115, KCl 4.7, MgSO4 1.2, KH2PO4 1.5, NaHCO3 25, CaCl2 2.5, glucose 10) kept at 37° C. and gassed with 95% O2 and 5% CO2. The rings were connected to force transducers and isometric tension was recorded (EMKA Technologies SA, Paris, France). The rings were stretched to a resting tension of 3 g (aorta) or 2 g (trachea). […] The functional inhibitory potency of the test compound was assessed by calculating the concentration ratio, i.e. the shift to the right of the EC50 induced by different concentrations of test compound. EC50 is the concentration of endothelin needed to get a half-maximal contraction, pA2 is the negative logarithm of the antagonist concentration which induces a two-fold shift in the EC50 value.

SMILES | IC50 [1] [nM] | IC50 [2] [nM] | IC50 ([1]; read-out: IC50 ETB) [nM] | IC50 ([2]; read-out: IC50 ETA) [nM] | Kb [3] [nM]
Cc1cc(C)nc(O[C@H](C(=O)O)[C@@]2(c3ccccc3)NCc3nnc(CC(=O)O)n3-c3ccccc32)n1 (racemic) [Example 27, (±)-(S*)-((6S*)-1-carboxymethyl-6-phenyl-5,6-dihydro-4H-2,3,5,10b-tetraaza-benzo[e]azulen-6-yl)-(4,6-dimethyl-pyrimidin-2-yloxy)-acetic acid] | 126 | 13 | – | – | –
COc1cc(OC)nc(O[C@H](C(=O)O)[C@@]2(c3ccccc3)NCC(=O)N(C)c3ccccc32)n1 (racemic) [Example 39, (±)-(S*)-((5S*)-1-methyl-2-oxo-5-phenyl-2,3,4,5-tetrahydro-1H-benzo[e][1,4]di-azepin-5-yl)-(4,6-dimethoxy-pyrimidin-2-yloxy)-acetic acid] | – | – | 701 | 29 | –
COc1cc(CN2C(=O)CN[C@](c3ccccc3)([C@H](Oc3nc(OC)cc(OC)n3)C(=O)O)c3ccccc32)cc(OC)c1 (racemic) [Example 40, (±)-(S*)-[(5S*)-1-(3,5-dimethoxy-benzyl)-2-oxo-5-phenyl-2,3,4,5-tetrahydro-1H-benzo[e][1,4]diazepin-5-yl]-(4,6-dimethoxy-pyrimidin-2-yloxy)-acetic acid] | – | – | 52 | 8 | –
Cc1cc(C)nc(O[C@H](C(=O)O)[C@@]2(c3ccccc3)NCC(=O)N(C)c3ccccc32)n1 (racemic) [Example 49, (±)-(S*)-(4,6-dimethyl-pyrimidin-2-yloxy)-((5S*)-1-methyl-2-oxo-5-phenyl-2,3,4,5-tetrahydro-1H-benzo[e][1,4]diazepin-5-yl)-acetic acid] | – | – | 240 | 17 | –
Cc1cc(C)nc(O[C@H](C(=O)O)[C@@]2(c3ccccc3)NCC(=O)N(CC(=O)O)c3ccccc32)n1 (racemic) [Example 50, (±)-(S*)-((5S*)-1-Carboxymethyl-2-oxo-5-phenyl-2,3,4,5-tetrahydro-1H-benzo[e][1,4]diazepin-5-yl)-(4,6-dimethyl-pyrimidin-2-yloxy)-acetoc acid] | – | – | 507 | 12 | –
COc1cc(CN2C(=O)CN[C@](c3ccccc3)([C@H](Oc3nc(C)cc(C)n3)C(=O)O)c3ccccc32)cc(OC)c1 (racemic) [Example 51, (±)-(S*)-[(5S*)-1-(3,5-Dimethoxy-benzyl)-2-oxo-5-phenyl-2,3,4,5-tetra-hydro-1H-benzo[e][1,4]diazepin-5-yl]-(4,6-dimethyl-pyrimidin-2-yloxy)-acetic acid] | – | – | 26 | 7 | 40.7
Cc1cc(C)nc(O[C@H](C(=O)O)[C@@]2(c3ccccc3)NCC(=O)N(CCO)c3ccccc32)n1 (racemic) [Example 56, (±)-(S*)-(4,6-Dimethyl-pyrimidin-2-yloxy)-[(5S*)-1-(2-hydroxy-ethyl)-2-oxo-5-phenyl-2,3,4,5-tetrahydro-1H-benzo[e][1,4]diazepin-5-yl]-acetic acid] | 83 | 4 | – | – | –
COC(=O)c1ccc(CN2C(=O)CN[C@](c3ccccc3)([C@H](Oc3nc(C)cc(C)n3)C(=O)O)c3ccccc32)cc1 (racemic) [Example 58, (±)-4-{(5S*)-5-[(S*)-Carboxy-(4,6-dimethyl-pyrimidin-2-yloxy)-methyl]-2-oxo-5-phenyl-2,3,4,5-tetrahydro-benzo[e][1,4]diazepin-1-ylmethyl}-benzoic acid methyl ester] | – | – | 29 | 2 | –
Cc1cc(C)nc(O[C@H](C(=O)O)[C@@]2(c3ccccc3)NCC(=O)N(CCc3cn(C)c4ccccc34)c3ccccc32)n1 (racemic) [Example 68] | – | – | 4 | 1 | –
Cc1cc(C)nc(O[C@H](C(=O)O)[C@@]2(c3ccccc3)NCC(=O)N(CCc3ccccc3)c3ccccc32)n1 (racemic) [Example 78] | – | – | 23 | 3 | –
Cc1cc(C)c(CN2C(=O)CN[C@](c3ccccc3)([C@H](Oc3nc(C)cc(C)n3)C(=O)O)c3ccccc32)c(C)c1 (racemic) [Example 111] | – | – | 10 | 3 | –
Cc1cc(C)nc(O[C@H](C(=O)O)[C@@]2(c3ccccc3)NCC(=O)N(c3ccccc3)c3ccccc32)n1 (racemic) [Example 117, (±)-(S*)-(4,6-dimethyl-pyrimidin-2-yloxy)-[(5S*)-2-oxo-1,5-diphenyl-2,3,4,5-tetrahydro-1H-benzo[e][1,4]diazepin-5-yl]-acetic acid] | – | – | 749 | 61 | –
Cc1cc(C)nc(O[C@H](C(=O)O)[C@]2(c3ccccc3)c3ccccc3N(Cc3c(F)cc(F)cc3F)C(=O)CN2C)n1 (racemic) [Example 129, (±)-(S*)-(4,6-Dimethyl-pyrimidin-2-yloxy)-[(5S*)-4-methyl-2-oxo-5-phenyl-1-(2,4,6-trifluoro-benzyl)-2,3,4,5-tetrahydro-1H-benzo[e][1,4]diazepin-5-yl]-acetic acid] | – | – | 353 | 6 | –
COc1cc(OC)nc(O[C@H](C(=O)O)[C@@]2(c3ccccc3)NCC(=O)N(C)c3ccc(Cl)cc32)n1 (racemic) [Example 166, (±)-(1S*)-((5S*)-7-Chloro-1-methyl-2-oxo-5-phenyl-2,3,4,5-tetrahydro-1H-benzo[e][1,4]diazepin-5-yl)-(4,6-dimethoxy-pyrimidin-2-yloxy)-acetic acid] | – | – | – | – | 105
COc1cc(CN2C(=O)CN[C@](c3ccccc3)([C@H](Oc3nc(OC)cc(OC)n3)C(=O)O)c3cc(Cl)ccc32)cc(OC)c1 (racemic) [Example 167, (±)-(1S*)-[(5S*)-7-Chloro-1-(3,5-dimethoxy-benzyl)-2-oxo-5-phenyl-2,3,4,5-tetrahydro-1H-benzo[e][1,4]diazepin-5-yl]-(4,6-dimethoxy-pyrimidin-2-yloxy)-acetic acid] | – | – | 947 | 36 | –
Cc1cc(C)nc(O[C@H](C(=O)O)[C@@]2(c3ccccc3)NCC(=O)N(C)c3ccc(Cl)cc32)n1 (racemic) [Example 170, (±)-(1S*)-((5S*)-7-Chloro-1-methyl-2-oxo-5-phenyl-2,3,4,5-tetra-hydro-1H-benzo[e][1,4]diazepin-5-yl)-(4,6-dimethyl-pyrimidin-2-yloxy)-acetic acid] | – | – | 368 | 15 | –
Cc1cccc([C@]2([C@H](Oc3nc(C)cc(C)n3)C(=O)O)NCC(=O)N(C)c3ccccc32)c1 (racemic) [Example 187, (±)-(S*)-(4,6-Dimethyl-pyrimidin-2-yloxy)-[(5S*)-1-methyl-2-oxo-5-m-tolyl-2,3,4,5-tetrahydro-1H-benzo[e][1,4]diazepin-5-yl]-acetic acid] | – | – | 180 | 18 | –
Cc1cc(C)nc(O[C@H](C(=O)O)[C@@]2(c3cccc(-c4ccccc4)c3)NCC(=O)N(Cc3c(F)ccc(F)c3F)c3ccccc32)n1 (racemic) [Example 213] | – | – | 29 | 3 | –
COc1ccc(CN2C(=O)CN[C@](c3ccc(F)c(C)c3)([C@H](Oc3nc(C)cc(C)n3)C(=O)O)c3ccccc32)cc1 (racemic) [Example 218, (±)-(S*)-(4,6-Dimethyl-pyrimidin-2-yloxy)-[(5S*)-5-(4-fluoro-3-methyl-phenyl)-1-(4-methoxy-benzyl)-2-oxo-2,3,4,5-tetrahydro-1H-benzo[e][1,4]diazepin-5-yl]-acetic acid] | – | – | 39 | 5 | –
CCCCc1ccc(CN2C(=O)CN[C@](c3cccc(CCCC)c3)([C@H](Oc3nc(C)cc(C)n3)C(=O)O)c3ccccc32)cc1 (racemic) [Example 223] | – | – | 12 | 7 | –
COC(=O)[C@@H](c1ccccc1)N1C(=O)CN[C@](c2ccccc2)([C@H](Oc2nc(C)cc(C)n2)C(=O)O)c2ccccc21 (relative stereo) [Example 52, (±)-(S*)-(4,6-Dimethyl-pyrimidin-2-yloxy)-[(5S*)-1-((R/S)-methoxycarbonyl-phenyl-methyl)-2-oxo-5-phenyl-2,3,4,5-tetrahydro-1H-benzo[e][1,4]diazepin-5-yl]-acetic acid] | – | – | 23 | 11 | –
